Measurements: PubChem BioAssay AID256 (DTP/NCI, 2004)
“And” between values parts separate entries of the source, which are not always exact repeats. Equal values may be shown once. Inconclusive results and toxic doses are left out. The calls were made as follows: active = survival T/C of 150% or more; inactive = T/C below 125% in these data.

Test system: CD2F1 mice, L1210 leukemia ip, survival T/C
Test: NCI In Vivo Anticancer Drug Screen. Data for tumor model L1210 Leukemia (intraperitoneal) in CD2F1 (CDF1) mice
Conditions: higher = longer survival
In short: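 Ratio T/C, where T is the treated-group value and C the vehicle-dosed control value, from mice implanted with a transplantable tumor.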

[1] = endpoint: mean survival time, dose: 100.0 mg/kg/injection, schedule: Q04DX003 (ip), vehicle: saline with Tween-80
[2] = endpoint: mean survival time, dose: 200.0 mg/kg/injection, schedule: Q04DX003 (ip), vehicle: saline with Tween-80
[3] = endpoint: mean survival time, dose: 400.0 mg/kg/injection, schedule: Q04DX003 (ip), vehicle: saline with Tween-80
[4] = endpoint: mean survival time, dose: 50.0 mg/kg/injection, schedule: Q01DX009 (ip), vehicle: Klucel (hydroxypropylcellulose) (HPC)
[5] = endpoint: mean survival time, dose: 100.0 mg/kg/injection, schedule: Q01DX009 (ip), vehicle: Klucel (hydroxypropylcellulose) (HPC)
[6] = endpoint: mean survival time, dose: 200.0 mg/kg/injection, schedule: Q01DX009 (ip), vehicle: Klucel (hydroxypropylcellulose) (HPC)
[7] = endpoint: mean survival time, dose: 100.0 mg/kg/injection, schedule: Q01DX001 (ip), vehicle: saline with Tween-80
[8] = endpoint: mean survival time, dose: 400.0 mg/kg/injection, schedule: Q01DX001 (ip), vehicle: saline with Tween-80

Measured: T/C

Nc1ccnc(SCCCOc2ccccc2)n1
inactive: endpoint: mean survival time, dose: 100.0 mg/kg/injection, schedule: Q04DX002 (ip), vehicle: saline with Tween-80 104 % of control | endpoint: mean survival time, dose: 200.0 mg/kg/injection, schedule: Q04DX002 (ip), vehicle: saline with Tween-80 101 % of control | endpoint: mean survival time, dose: 400.0 mg/kg/injection, schedule: Q04DX002 (ip), vehicle: saline with Tween-80 97 % of control

CC(=O)[O][Hg][O]C(C)=O
inactive: endpoint: mean survival time, dose: 1.25 mg/kg/injection, schedule: Q01DX009 (ip), vehicle: saline sonified 95 % of control | endpoint: mean survival time, dose: 2.5 mg/kg/injection, schedule: Q01DX009 (ip), vehicle: saline sonified 103 % of control | endpoint: mean survival time, dose: 5.0 mg/kg/injection, schedule: Q01DX009 (ip), vehicle: saline sonified 90 % of control | endpoint: mean survival time, dose: 5.0 mg/kg/injection, schedule: Q04DX003 (ip), vehicle: saline with Tween-80 106 % of control

CCOC(=O)c1ccc2c(c1)Cc1cc([N+](=O)[O-])ccc1-2
inactive: endpoint: mean survival time, dose: 100.0 mg/kg/injection, schedule: Q01DX001 (ip), vehicle: carboxymethylcellulose (CMC) 98 % of control | endpoint: mean survival time, dose: 200.0 mg/kg/injection, schedule: Q01DX001 (ip), vehicle: carboxymethylcellulose (CMC) 95 % of control | endpoint: mean survival time, dose: 400.0 mg/kg/injection, schedule: Q01DX001 (ip), vehicle: carboxymethylcellulose (CMC) 95 % of control

C1CCC(N=C(NC2CCCCC2)NC2CCCCC2)CC1
inactive: [1] 109 % of control | [2] 100 % of control

CC(=O)OC1CC2CC(C1C)C2(C)C (stereo not given)
inactive: endpoint: mean survival time, dose: 100.0 mg/kg/injection, schedule: Q01DX009 (ip), vehicle: saline with Tween-80 91 % of control | [1] 90 % of control | [2] 88 % of control | [3] 88 % of control

C=C(C#N)C(=O)OCC(CC)CC.C=C(C#N)C(=O)OCC(CC)CC.CS(C)=O.CS(C)=O.Nc1c(N=Nc2ccc(-c3ccc(N=Nc4cc(S(=O)(=O)[O-])c5ccccc5c4N)cc3)cc2)cc(S(=O)(=O)[O-])c2ccccc12.[Pt+2]
inactive: endpoint: median survival time, dose: 3.12 mg/kg/injection, schedule: Q04DX003 (ip), vehicle: saline with Tween-80 95 % of control | endpoint: median survival time, dose: 6.25 mg/kg/injection, schedule: Q04DX003 (ip), vehicle: saline with Tween-80 106 % of control | endpoint: median survival time, dose: 12.5 mg/kg/injection, schedule: Q04DX003 (ip), vehicle: saline with Tween-80 108 % of control | endpoint: median survival time, dose: 25.0 mg/kg/injection, schedule: Q04DX003 (ip), vehicle: saline with Tween-80 100 % of control | endpoint: median survival time, dose: 50.0 mg/kg/injection, schedule: Q04DX003 (ip), vehicle: saline with Tween-80 97 % of control | endpoint: median survival time, dose: 100.0 mg/kg/injection, schedule: Q04DX003 (ip), vehicle: saline with Tween-80 98 % of control | endpoint: median survival time, dose: 200.0 mg/kg/injection, schedule: Q04DX003 (ip), vehicle: saline with Tween-80 90 % of control

CC(=O)CC(C)=NCC(C)N=C(C)CC(C)=O.c1cc[c]([Sn][c]2ccccc2)cc1 (stereo not given)
inactive: endpoint: mean survival time, dose: 2.5 mg/kg/injection, schedule: Q01DX009 (ip), vehicle: saline with Tween-80 93 % of control | endpoint: mean survival time, dose: 5.0 mg/kg/injection, schedule: Q01DX001 (ip), vehicle: saline with Tween-80 98 % of control | endpoint: mean survival time, dose: 5.0 mg/kg/injection, schedule: Q01DX009 (ip), vehicle: saline with Tween-80 107 % of control | endpoint: mean survival time, dose: 10.0 mg/kg/injection, schedule: Q01DX001 (ip), vehicle: saline with Tween-80 103 % of control

CCOC(OCC)c1ccccc1 (tested in a mixture with another compound)
inactive: [1] 97 % of control | [2] 97 % of control | [3] 97 % of control

CC12CCC3C4CCC(=O)C=C4CCC3C1CCC2O (stereo not given)
inactive: [4] 101 % of control | [5] 96 % of control | [6] 101 % of control

CC(=O)OC1CCC2(C)C(=CCC3C2CCC2(C)C(C(C)CCCC(C)C)CCC32)C1 (stereo not given)
inactive: [4] 96 % of control | [5] 93 % of control | [6] 86 % of control

c1cc[c]([Pb]([c]2ccccc2)([c]2ccccc2)[n]2cccc2)cc1
inactive: endpoint: mean survival time, dose: 6.25 mg/kg/injection, schedule: Q01DX009 (ip), vehicle: acetone 96 % of control | endpoint: mean survival time, dose: 12.5 mg/kg/injection, schedule: Q01DX009 (ip), vehicle: acetone 88 % of control | endpoint: mean survival time, dose: 12.5 mg/kg/injection, schedule: Q04DX003 (ip), vehicle: acetone 88 % of control | endpoint: mean survival time, dose: 25.0 mg/kg/injection, schedule: Q04DX003 (ip), vehicle: acetone 93 % of control

Cc1ncnc2c1ncn2C1OC(CO)C(O)C1O (stereo not given)
inactive: endpoint: mean survival time, dose: 0.25 mg/kg/injection, schedule: Q01DX005 (ip), vehicle: saline 113 % of control | endpoint: mean survival time, dose: 0.5 mg/kg/injection, schedule: Q01DX005 (ip), vehicle: saline 112 % of control | endpoint: mean survival time, dose: 1.0 mg/kg/injection, schedule: Q01DX005 (ip), vehicle: saline 124 % of control | endpoint: mean survival time, dose: 4.0 mg/kg/injection, schedule: Q01DX005 (ip), vehicle: saline 113 % of control

CC(/C=N/O)=N\O.CC(/C=N/O)=N\O.[Pd]
inactive: endpoint: mean survival time, dose: 1.56 mg/kg/injection, schedule: Q01DX009 (ip), vehicle: saline with Tween-80 98 % of control | endpoint: mean survival time, dose: 1.56 mg/kg/injection, schedule: Q04DX002 (ip), vehicle: saline with Tween-80 100 % of control | endpoint: mean survival time, dose: 3.13 mg/kg/injection, schedule: Q01DX009 (ip), vehicle: saline with Tween-80 95 % of control | endpoint: mean survival time, dose: 3.13 mg/kg/injection, schedule: Q04DX002 (ip), vehicle: saline with Tween-80 95 % of control | endpoint: mean survival time, dose: 6.25 mg/kg/injection, schedule: Q04DX002 (ip), vehicle: saline with Tween-80 88 % of control | endpoint: mean survival time, dose: 25.0 mg/kg/injection, schedule: Q04DX002 (ip), vehicle: saline with Tween-80 102 % of control

Cc1ccccc1-c1nc2c([nH]1)c(=O)n(C)c(=O)n2C
inactive: endpoint: mean survival time, dose: 12.5 mg/kg/injection, schedule: Q01DX005 (ip), vehicle: distilled water + Tween-80 87 % of control | endpoint: mean survival time, dose: 25.0 mg/kg/injection, schedule: Q01DX005 (ip), vehicle: distilled water + Tween-80 92 % of control and 94 % of control | endpoint: mean survival time, dose: 50.0 mg/kg/injection, schedule: Q01DX005 (ip), vehicle: distilled water + Tween-80 93 % of control and 95 % of control | endpoint: mean survival time, dose: 100.0 mg/kg/injection, schedule: Q01DX005 (ip), vehicle: distilled water + Tween-80 88 % of control | endpoint: mean survival time, dose: 200.0 mg/kg/injection, schedule: Q01DX005 (ip), vehicle: distilled water + Tween-80 88 % of control and 93 % of control | endpoint: mean survival time, dose: 400.0 mg/kg/injection, schedule: Q01DX005 (ip), vehicle: distilled water + Tween-80 90 % of control

Cc1ccc(-c2csc(/N=C/c3ccccc3O)n2)cc1.Cc1ccc(-c2csc(/N=C/c3ccccc3O)n2)cc1.[Cu]
inactive: endpoint: mean survival time, dose: 25.0 mg/kg/injection, schedule: Q01DX001 (ip), vehicle: saline 91 % of control | endpoint: mean survival time, dose: 50.0 mg/kg/injection, schedule: Q01DX001 (ip), vehicle: saline 96 % of control | [7] 86 % of control | endpoint: mean survival time, dose: 100.0 mg/kg/injection, schedule: Q01DX001 (ip), vehicle: saline 87 % of control | [8] 93 % of control

Nc1ccc(Nc2c3ccccc3nc3ccccc23)cc1
inactive: endpoint: mean survival time, dose: 6.25 mg/kg/injection, schedule: Q04DX003 (ip), vehicle: saline 101 % of control | endpoint: mean survival time, dose: 12.5 mg/kg/injection, schedule: Q04DX003 (ip), vehicle: saline 111 % of control | endpoint: mean survival time, dose: 25.0 mg/kg/injection, schedule: Q04DX003 (ip), vehicle: saline 114 % of control

O=C(NCCCl)Nc1cccc(Cl)c1
inactive: [7] 87 % of control | endpoint: mean survival time, dose: 200.0 mg/kg/injection, schedule: Q01DX001 (ip), vehicle: saline with Tween-80 102 % of control | [8] 90 % of control

CCC(/C=C1\Oc2ccc(-c3ccccc3)cc2N1CC)=C\c1oc2ccc(-c3ccccc3)cc2[n+]1CC
inactive: endpoint: mean survival time, dose: 4.4 mg/kg/injection, schedule: Q01DX009 (ip), vehicle: other 117 % of control

COC1OCCC(C)O1 (stereo not given)
inactive: endpoint: mean survival time, dose: 100.0 mg/kg/injection, schedule: Q04DX002 (ip), vehicle: saline 104 % of control | endpoint: mean survival time, dose: 200.0 mg/kg/injection, schedule: Q04DX002 (ip), vehicle: saline 104 % of control | endpoint: mean survival time, dose: 400.0 mg/kg/injection, schedule: Q04DX002 (ip), vehicle: saline 107 % of control

O=c1[nH]c2ccccc2nc1C(Cl)Cl
inactive: endpoint: mean survival time, dose: 25.0 mg/kg/injection, schedule: Q01DX009 (ip), vehicle: Klucel (hydroxypropylcellulose) (HPC) 105 % of control | [4] 100 % of control | endpoint: mean survival time, dose: 50.0 mg/kg/injection, schedule: Q04DX003 (ip), vehicle: Klucel (hydroxypropylcellulose) (HPC) 114 % of control | [5] 116 % of control | endpoint: mean survival time, dose: 100.0 mg/kg/injection, schedule: Q04DX003 (ip), vehicle: Klucel (hydroxypropylcellulose) (HPC) 105 % of control | endpoint: mean survival time, dose: 200.0 mg/kg/injection, schedule: Q04DX003 (ip), vehicle: Klucel (hydroxypropylcellulose) (HPC) 105 % of control | endpoint: median survival time, dose: 50.0 mg/kg/injection, schedule: Q04DX003 (ip), vehicle: Klucel (hydroxypropylcellulose) (HPC) 107 % of control | endpoint: median survival time, dose: 100.0 mg/kg/injection, schedule: Q04DX003 (ip), vehicle: Klucel (hydroxypropylcellulose) (HPC) 104 % of control | endpoint: median survival time, dose: 200.0 mg/kg/injection, schedule: Q04DX003 (ip), vehicle: Klucel (hydroxypropylcellulose) (HPC) 117 % of control
